# Results as given in ChEMBL document CHEMBL1201862, “PubChem BioAssay data set” (2004).
#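 These data come from cells grown in 96-well plates and exposed to compound for 48 hours at five concentrations. The concentration for 50% growth inhibition is given as GI50.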 Activity calls are given as the source filed them. Rule as the data show it: active = GI50 up to about 1.1 µM and inactive = higher.
# How the values were obtained:
# Assay in all cases: DTP human tumour cell line panel, 48 h
# 786-0 = system: 786-0
# A498 = system: A498
# A549 = system: A549
# ACHN = system: ACHN
# CAKI-1 = system: CAKI-1
# CCRF-CEM = system: CCRF-CEM
# COLO 205 = system: COLO 205
# DLD-1 = system: DLD-1
# DMS-114 = system: DMS-114
# EKVX = system: EKVX
# HCC 2998 = system: HCC 2998
# HCT-116 = system: HCT-116
# HCT-15 = system: HCT-15
# HL-60 = system: HL-60
# HOP-18 = system: HOP-18
# HOP-62 = system: HOP-62
# HOP-92 = system: HOP-92
# HT-29 = system: HT-29
# IGROV-1 = system: IGROV-1
# K562 = system: K562
# KM-20L2 = system: KM-20L2
# KM12 = system: KM12
# LOX IMVI = system: LOX IMVI
# LXFL 529 = system: LXFL 529
# M14 = system: M14
# M19-MEL = system: M19-MEL
# MOLT-4 = system: MOLT-4
# Malme-3M = system: Malme-3M
# NCI-H226 = system: NCI-H226
# NCI-H23 = system: NCI-H23
# NCI-H460 = system: NCI-H460
# OVCAR-3 = system: OVCAR-3
# OVCAR-4 = system: OVCAR-4
# OVCAR-5 = system: OVCAR-5
# OVCAR-8 = system: OVCAR-8
# RPMI-8226 = system: RPMI-8226
# RXF 393 = system: RXF 393
# RXF 631 = system: RXF 631
# SF-295 = system: SF-295
# SF-539 = system: SF-539
# SK-MEL-2 = system: SK-MEL-2
# SK-MEL-5 = system: SK-MEL-5
# SK-OV-3 = system: SK-OV-3
# SN12C = system: SN12C
# SNB-19 = system: SNB-19
# SNB-75 = system: SNB-75
# SNB-78 = system: SNB-78
# SW-620 = system: SW-620
# TK-10 = system: TK-10
# U-251 = system: U-251
# UACC-257 = system: UACC-257
# UACC-62 = system: UACC-62
# UO-31 = system: UO-31
# XF498 = system: XF498
# DMS-273 = system: DMS-273
# SF-268 = system: SF-268
# SK-MEL-28 = system: SK-MEL-28
# SR = system: SR
structure (smiles),measurement,setting,value
CSc1nc(NC2OCC(OC(C)=O)C(OC(C)=O)C2OC(C)=O)c2c(OC(C)=O)c(C)c(=O)oc2n1 (stereo not drawn),GI50,786-0,> 100 µM (inactive)
same,GI50,A498,> 100 µM (inactive)
same,GI50,A549,> 100 µM (inactive)
same,GI50,ACHN,> 100 µM (inactive)
same,GI50,CAKI-1,> 100 µM (inactive)
same,GI50,CCRF-CEM,> 100 µM (inactive)
same,GI50,COLO 205,> 100 µM (inactive)
same,GI50,DLD-1,> 100 µM (inactive)
same,GI50,DMS-114,> 100 µM (inactive)
same,GI50,EKVX,> 100 µM (inactive)
same,GI50,HCC 2998,> 100 µM (inactive)
same,GI50,HCT-116,> 100 µM (inactive)
same,GI50,HCT-15,> 100 µM
same,GI50,HL-60,> 100 µM (inactive)
same,GI50,HOP-18,> 100 µM (inactive)
same,GI50,HOP-62,> 100 µM (inactive)
same,GI50,HOP-92,71.6 µM (inactive)
same,GI50,HT-29,> 100 µM (inactive)
same,GI50,IGROV-1,> 100 µM (inactive)
same,GI50,K562,> 100 µM (inactive)
same,GI50,KM-20L2,> 100 µM (inactive)
same,GI50,KM12,> 100 µM (inactive)
same,GI50,LOX IMVI,> 100 µM (inactive)
same,GI50,LXFL 529,> 100 µM (inactive)
same,GI50,M14,> 100 µM (inactive)
same,GI50,M19-MEL,> 100 µM (inactive)
same,GI50,MOLT-4,> 100 µM (inactive)
same,GI50,Malme-3M,> 100 µM (inactive)
same,GI50,NCI-H226,> 100 µM (inactive)
same,GI50,NCI-H23,> 100 µM (inactive)
same,GI50,NCI-H460,> 100 µM (inactive)
same,GI50,OVCAR-3,> 100 µM (inactive)
same,GI50,OVCAR-4,> 100 µM (inactive)
same,GI50,OVCAR-5,> 100 µM (inactive)
same,GI50,OVCAR-8,> 100 µM (inactive)
same,GI50,RPMI-8226,> 100 µM (inactive)
same,GI50,RXF 393,> 100 µM (inactive)
same,GI50,RXF 631,> 100 µM (inactive)
same,GI50,SF-295,> 100 µM (inactive)
same,GI50,SF-539,> 100 µM (inactive)
same,GI50,SK-MEL-2,> 100 µM (inactive)
same,GI50,SK-MEL-5,> 100 µM (inactive)
same,GI50,SK-OV-3,> 100 µM (inactive)
same,GI50,SN12C,> 100 µM (inactive)
same,GI50,SNB-19,> 100 µM (inactive)
same,GI50,SNB-75,> 100 µM (inactive)
same,GI50,SNB-78,> 100 µM (inactive)
same,GI50,SW-620,> 100 µM (inactive)
same,GI50,TK-10,> 100 µM (inactive)
same,GI50,U-251,> 100 µM (inactive)
same,GI50,UACC-257,> 100 µM (inactive)
same,GI50,UACC-62,> 100 µM (inactive)
same,GI50,UO-31,> 100 µM (inactive)
same,GI50,XF498,> 100 µM (inactive)
CC(=O)C1(O)CCC2(O)C3(O)CC=C4CC(O)CCC4(C)C3CC(OC(=O)c3ccc(O)cc3)C12C.COC1CC(OC2C(C)OC(OC3C(C)OC(OC4CCC5(C)C(=CCC6(O)C5CC(OC(=O)c5ccc(O)cc5)C5(C)C(O)(C(C)=O)CCC65O)C4)CC3OC)CC2OC)OC(C)C1O (stereo not drawn),GI50,786-0,23.7 µM (inactive)
same,GI50,A549,30.5 µM (inactive)
same,GI50,ACHN,30.1 µM (inactive)
same,GI50,CCRF-CEM,32.4 µM (inactive)
same,GI50,COLO 205,26.9 µM (inactive)
same,GI50,DLD-1,36.6 µM (inactive)
same,GI50,DMS-273,36.2 µM (inactive)
same,GI50,EKVX,35.4 µM (inactive)
same,GI50,HCC 2998,26.9 µM (inactive)
same,GI50,HCT-116,10 µM (inactive)
same,GI50,HCT-15,33.6 µM
same,GI50,HL-60,20.7 µM (inactive)
same,GI50,HOP-18,38.7 µM (inactive)
same,GI50,HOP-62,31.6 µM (inactive)
same,GI50,HOP-92,21.1 µM (inactive)
same,GI50,HT-29,31.4 µM (inactive)
same,GI50,IGROV-1,34.2 µM (inactive)
same,GI50,LOX IMVI,20.5 µM (inactive)
same,GI50,LXFL 529,24.9 µM (inactive)
same,GI50,M19-MEL,35.5 µM (inactive)
same,GI50,MOLT-4,30.5 µM (inactive)
same,GI50,Malme-3M,25.1 µM (inactive)
same,GI50,NCI-H226,34.4 µM (inactive)
same,GI50,NCI-H23,28.9 µM (inactive)
same,GI50,NCI-H460,34.2 µM (inactive)
same,GI50,OVCAR-3,20.3 µM (inactive)
same,GI50,OVCAR-5,87.5 µM (inactive)
same,GI50,OVCAR-8,29.9 µM (inactive)
same,GI50,RPMI-8226,27.5 µM (inactive)
same,GI50,RXF 393,44.4 µM (inactive)
same,GI50,RXF 631,76 µM (inactive)
same,GI50,SF-268,30.6 µM (inactive)
same,GI50,SF-295,36 µM (inactive)
same,GI50,SF-539,24.5 µM (inactive)
same,GI50,SK-MEL-28,29 µM (inactive)
same,GI50,SK-MEL-2,20.4 µM (inactive)
same,GI50,SK-OV-3,36.7 µM (inactive)
same,GI50,SN12C,31.3 µM (inactive)
same,GI50,SNB-19,33.6 µM (inactive)
same,GI50,SNB-75,76.4 µM (inactive)
same,GI50,SNB-78,20.6 µM (inactive)
same,GI50,SR,25.8 µM (inactive)
same,GI50,SW-620,42.1 µM (inactive)
same,GI50,TK-10,60.8 µM (inactive)
same,GI50,U-251,22.5 µM (inactive)
same,GI50,UACC-257,23.4 µM (inactive)
same,GI50,UACC-62,23.4 µM (inactive)
same,GI50,UO-31,18.3 µM (inactive)
same,GI50,XF498,2.03 µM (inactive)
